From US9783536B2, “Nitrogen-containing heterocyclic compound or salt thereof” (FUJIFILM Corporation, priority 2013, dated 2017)
Read-outs that look alike come from different tables or passages of the source.

What was measured:
human PI3Kα protein = target: T1, human PI3Kα protein (Homo sapiens, UniProt P42336); assay: PI3Kα enzyme assay (ADP-Glo); assay type: biochemical; settings: read-out: PI3Kα enzyme inhibitory activity
T1 construct: purchased Carna Biosciences, Inc; host or cells: baculovirus expression system
T1 sequence (P42336 whole entry): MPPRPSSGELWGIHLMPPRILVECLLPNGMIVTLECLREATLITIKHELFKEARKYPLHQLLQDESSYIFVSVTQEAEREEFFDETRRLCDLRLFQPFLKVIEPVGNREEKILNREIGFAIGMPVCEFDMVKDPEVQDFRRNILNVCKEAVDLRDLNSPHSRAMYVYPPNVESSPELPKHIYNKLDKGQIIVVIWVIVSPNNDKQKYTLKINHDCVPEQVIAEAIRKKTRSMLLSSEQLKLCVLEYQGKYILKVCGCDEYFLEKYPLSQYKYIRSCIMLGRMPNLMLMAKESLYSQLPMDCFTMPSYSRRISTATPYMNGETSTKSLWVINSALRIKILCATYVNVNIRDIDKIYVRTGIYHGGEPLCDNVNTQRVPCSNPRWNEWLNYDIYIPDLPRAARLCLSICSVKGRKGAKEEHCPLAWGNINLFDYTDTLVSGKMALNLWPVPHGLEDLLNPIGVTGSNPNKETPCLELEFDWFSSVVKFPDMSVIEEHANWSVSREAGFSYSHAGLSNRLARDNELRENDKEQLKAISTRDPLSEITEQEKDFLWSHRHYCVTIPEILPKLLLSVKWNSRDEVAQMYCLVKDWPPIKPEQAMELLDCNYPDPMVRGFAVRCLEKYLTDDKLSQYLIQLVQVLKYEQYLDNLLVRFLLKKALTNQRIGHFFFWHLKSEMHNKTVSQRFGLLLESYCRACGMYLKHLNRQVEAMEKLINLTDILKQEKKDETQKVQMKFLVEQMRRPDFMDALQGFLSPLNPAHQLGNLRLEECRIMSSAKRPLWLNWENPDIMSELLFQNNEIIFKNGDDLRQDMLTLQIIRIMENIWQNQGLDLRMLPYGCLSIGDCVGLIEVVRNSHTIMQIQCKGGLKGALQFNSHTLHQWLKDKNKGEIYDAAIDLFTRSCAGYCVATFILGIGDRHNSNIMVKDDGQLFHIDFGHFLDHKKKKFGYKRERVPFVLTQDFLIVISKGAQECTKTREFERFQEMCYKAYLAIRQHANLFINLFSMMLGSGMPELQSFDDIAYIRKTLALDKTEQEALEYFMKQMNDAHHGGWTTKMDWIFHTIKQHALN
T1 sequence (P27986 whole entry partner): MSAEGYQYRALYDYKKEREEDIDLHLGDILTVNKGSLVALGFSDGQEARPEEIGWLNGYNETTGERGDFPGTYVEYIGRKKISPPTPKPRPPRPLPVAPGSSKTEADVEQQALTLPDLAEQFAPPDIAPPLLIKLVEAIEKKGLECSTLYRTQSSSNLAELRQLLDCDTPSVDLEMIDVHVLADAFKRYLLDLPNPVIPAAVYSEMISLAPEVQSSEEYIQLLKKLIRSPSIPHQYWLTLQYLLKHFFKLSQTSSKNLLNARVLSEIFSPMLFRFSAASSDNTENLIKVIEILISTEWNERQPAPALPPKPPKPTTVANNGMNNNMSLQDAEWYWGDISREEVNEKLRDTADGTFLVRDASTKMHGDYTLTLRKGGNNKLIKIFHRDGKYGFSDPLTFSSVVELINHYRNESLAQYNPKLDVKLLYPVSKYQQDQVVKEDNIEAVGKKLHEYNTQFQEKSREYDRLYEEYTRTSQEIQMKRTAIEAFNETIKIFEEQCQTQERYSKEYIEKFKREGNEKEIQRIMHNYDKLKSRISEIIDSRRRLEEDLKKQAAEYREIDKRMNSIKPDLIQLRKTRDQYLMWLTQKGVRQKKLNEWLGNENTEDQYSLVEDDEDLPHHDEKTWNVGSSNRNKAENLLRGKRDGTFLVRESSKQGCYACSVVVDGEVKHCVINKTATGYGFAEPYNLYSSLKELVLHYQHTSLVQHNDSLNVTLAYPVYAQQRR
How it was run: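 Biotinylated human PI3Kα (baculovirus-expressed, 4.5 nmol/L) pre-incubated 15 min with compound in Tris-HCl pH 7.5, MgCl2, BSA; reaction 60 min at 25° C with 50 μmol/L PIP2 and 100 μmol/L ATP final. ADP quantified by ADP-Glo luminescence; IC50 calculated.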

[1] = target: T2, GST fusion human ERK2 protein (Homo sapiens, UniProt P28482); assay: ERK2 enzyme assay (2); assay type: biochemical; settings: read-out: ERK2 enzyme inhibitory activity (2)
T2 construct: purchased Carna Biosciences, Inc; host or cells: E. coli expression system
T2 sequence (P28482 whole entry, the tested form may be a part): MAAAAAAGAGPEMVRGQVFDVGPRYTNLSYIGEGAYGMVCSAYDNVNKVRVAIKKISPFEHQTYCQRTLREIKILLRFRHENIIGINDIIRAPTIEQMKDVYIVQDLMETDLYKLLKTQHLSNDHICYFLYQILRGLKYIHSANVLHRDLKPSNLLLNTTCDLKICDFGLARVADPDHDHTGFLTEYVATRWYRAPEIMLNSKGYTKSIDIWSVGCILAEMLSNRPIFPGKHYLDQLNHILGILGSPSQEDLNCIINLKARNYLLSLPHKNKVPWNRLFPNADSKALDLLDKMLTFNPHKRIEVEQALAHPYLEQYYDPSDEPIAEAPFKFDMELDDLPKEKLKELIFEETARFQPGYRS
How it was run: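 IC50 values come from mobility-shift measurement of phosphorylated versus unphosphorylated 5-FAM peptide substrate after EDTA quench. Beforehand, compound and 1.25 nmol/L E. coli-expressed GST–human ERK2 stood 15 min at room temperature (pH 7.5), then 1 mmol/L ATP and 4.25 μmol/L substrate (final) were added for 120 min at 25 °C.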

| SMILES | IC50 (human PI3Kα protein) [µM] | IC50 ([1]; ERK2 enzyme assay (2)) [µM] | IC50 [1] [µM] |
| --- | --- | --- | --- |
| CC(=O)N1CCC(n2cc(-c3cnc4ccc(Nc5cc(C(C)C)cnn5)nc4c3)cn2)CC1 [Example 0478, 1-(4-(4-(6-((5-Isopropylpyridazin-3-yl)amino)-1,5-naphthyridin-3-yl)-1H-pyrazol-1-yl)piperidin-1-yl)ethanone] | < 1 | < 1 | – |
| Cc1nn(C)cc1-c1cnc2ccc(Nc3cc(C(C)(C)O)cnn3)nc2c1 [Example 0547] | < 1 | < 1 | – |
| CC(C)COC1CN(CCCn2cc(-c3cnc4ccc(Nc5cc(C(C)C)cnn5)nc4c3)cn2)C1 [Example 0708] | < 1 | < 1 | – |
| CC(C)c1cnnc(Nc2ccc3ncc(-c4cnn(CCCN5CCCCC5C(F)(F)F)c4)cc3n2)c1 (stereo not shown) [Example 0672] | < 1 | < 1 | – |
| CCn1cc(-c2cnc3ccc(Nc4cc(C(C)C)cnn4)nc3c2)c(-c2ccncc2)n1 [Example 0771] | < 1 | < 1 | – |
| CC(C)c1cnnc(Nc2ccc3ncc(-c4cn(C)nc4CN4CCN(c5ccncc5)CC4)cc3n2)c1 [Example 0909] | < 1 | – | < 1 |
| CC(C)c1cnnc(Nc2ccc3ncc(NC(=O)CO)cc3n2)c1 [Example 0662, 2-hydroxy-N-(6-((5-isopropylpyridazin-3-yl)amino)-1,5-naphthyridin-3-yl)acetamide] | < 1 | 1 to 10 | – |
| CC(C)c1cnnc(Nc2ccc3ncc(N4CCC(=O)N(C)CC4)cc3n2)c1 [Example 0862] | < 1 | < 1 | – |
| CC(C)c1cnnc(Nc2ccc3ncc(-c4cn(C)nc4-c4ccc(OCC(=O)N(C)C)cc4)cc3n2)c1 [Example 0777, 2-(4-(4-(6-((5-Isopropylpyridazin-3-yl)amino)-1,5-naphthyridin-3-yl)-1-methyl-1H-pyrazol-3-yl)phenoxy)-N,N-dimethylacetamide] | < 1 | < 1 | – |
| CC(C)c1cnnc(Nc2ccc3ncc(N4CC5CCC(C4)O5)cc3n2)c1 [Example 0903] | < 1 | – | < 1 |
| CC(C)c1cnnc(Nc2ccc3ncc(C4=CCN(C(=O)N(C)C)CC4)cc3n2)c1 [Example 0883, 4-(6-((5-Isopropylpyridazin-3-yl)amino)-1,5-naphthyridin-3-yl)-N,N-dimethyl-5,6-dihydropyridine-1(2H)-carboxamide] | < 1 | < 1 | – |
| COC1CN(c2nn(C)cc2-c2cnc3ccc(Nc4cc(C(C)C)cnn4)nc3c2)C1 [Example 0930] | < 1 | – | < 1 |
| CC(C)c1cnnc(Nc2ccc3ncc(-c4cn(C)nc4-c4ccc(N)nc4)cc3n2)c1 [Example 0461, 7-(3-(6-aminopyridin-3-yl)-1-methyl-1H-pyrazol-4-yl)-N-(5-isopropylpyridazin-3-yl)-1,5-naphthyridine-2-amine] | < 1 | < 1 | – |
| CCc1cnnc(Nc2ccc3ncc(-c4cn(C)nc4-c4cccnc4)cc3n2)c1 [Example 0542, N-(5-ethylpyridazin-3-yl)-7-(1-methyl-3-(pyridin-3-yl)-1H-pyrazol-4-yl)-1,5-naphthyridine-2-amine] | < 1 | < 1 | – |
| COC1CN(CCCn2cc(-c3cnc4ccc(Nc5cc(C(C)C)cnn5)nc4c3)c(C)n2)C1 [Example 0796, N-(5-isopropylpyridazin-3-yl)-7-(1-(3-(3-methoxyazetidin-1-yl)propyl)-3-methyl-1H-pyrazol-4-yl)-1,5-naphthyridine-2-amine] | < 1 | < 1 | – |
| CC(C)c1cnnc(Nc2ccc3ncc(-c4cn(C)nc4N4CCC4)cc3n2)c1 [Example 0932] | < 1 | – | < 1 |
| CC(C)c1cnnc(Nc2ccc3ncc(-c4cn(C)nc4Cl)cc3n2)c1 [Example 0886, 7-(3-Chloro-1-methyl-1H-pyrazol-4-yl)-N-(5-isopropylpyridazin-3-yl)-1,5-naphthyridine-2-amine] | < 1 | < 1 | – |
| Cn1cc(-c2cnc3ccc(Nc4cc(N5CCOCC5)cnn4)nc3c2)cn1 [Example 0554, 7-(1-methyl-1H-pyrazol-4-yl)-N-(5-morpholinopyridazin-3-yl)-1,5-naphthyridine-2-amine] | < 1 | < 1 | – |
| CC(C)c1cnnc(Nc2ccc3ncc(N4CCC(C#N)C4)cc3n2)c1 (stereo not shown) [Example 0897] | < 1 | < 1 | – |
| CC(C)c1cnnc(Nc2ccc3ncc(C(=O)NCCCCO)cc3n2)c1 [Example 0664] | 1 to 10 | 1 to 10 | – |
| Cn1cc(-c2cnc3ccc(Nc4cc(C(C)(C)O)cnn4)nc3c2)c(-c2ccncc2)n1 [Example 0782] | < 1 | < 1 | – |
| CC(C)c1cnnc(Nc2ccc3ncc(C4=CCN(C)CC4)cc3n2)c1 [Example 0884, N-(5-isopropylpyridazin-3-yl)-7-(1-methyl-1,2,3,6-tetrahydropyridin-4-yl)-1,5-naphthyridine-2-amine] | 1 to 10 | < 1 | – |
| CC(C)c1cnnc(Nc2ccc3ncc(-n4cnc(CO)c4)cc3n2)c1 [Example 0497, (1-(6-((5-isopropylpyridazin-3-yl)amino)-1,5-naphthyridin-3-yl)-1H-imidazol-4-yl)methanol] | 1 to 10 | < 1 | – |
| CC(C)c1cnnc(Nc2ccc3ncc(N4CCN(S(C)(=O)=O)CC4)cc3n2)c1 [Example 0861] | < 1 | < 1 | – |
| Cc1nn(C)c(C)c1-c1cnc2ccc(Nc3cc(C(C)C)cnn3)nc2c1 [Example 0624, N-(5-isopropylpyridazin-3-yl)-7-(1,3,5-trimethyl-1H-pyrazol-4-yl)-1,5-naphthyridine-2-amine] | 1 to 10 | < 1 | – |
| CC(C)c1cnnc(Nc2ccc3ncc(-c4cccnc4O)cc3n2)c1 [Example 0593] | 1 to 10 | < 1 | – |
| C=C(C)c1cnnc(Nc2ccc3ncc(-c4cn(C)nc4C)cc3n2)c1 [Example 0785] | < 1 | < 1 | – |
| CC(C)c1cnnc(Nc2ccc3ncc(-c4ccnc(N)c4)cc3n2)c1 [Example 0602, 7-(2-aminopyridin-4-yl)-N-(5-isopropylpyridazin-3-yl)-1,5-naphthyridine-2-amine] | < 1 | < 1 | – |

Next, values leading:

| IC50 (human PI3Kα protein) [µM] | IC50 ([1]; ERK2 enzyme assay (2)) [µM] | IC50 [1] [µM] | SMILES |
| --- | --- | --- | --- |
| < 1 | 1 to 10 | – | Cc1cnnc(Nc2ccc3nccc(-c4cnn(C)c4)c3n2)c1 [Example 0448, 8-(1-Methyl-1H-pyrazol-4-yl)-N-(5-methylpyridazin-3-yl)-1,5-naphthyridine-2-amine] |
| 1 to 10 | < 1 | – | CC(C)c1cnnc(Nc2ccc3ncc(N4CC5(CCO5)C4)cc3n2)c1 [Example 0856] |
| < 1 | – | < 1 | CC(C)c1cnnc(Nc2ccc3ncc(-c4cn(C)nc4CN4CCN(c5cccnc5)CC4)cc3n2)c1 [Example 0910] |
| < 1 | < 1 | – | CC(C)(O)c1cnnc(Nc2ccc3ncc(-c4cnn(CC5CCOCC5)c4)cc3n2)c1 [Example 0783] |
| < 1 | < 1 | – | CC(C)c1cnnc(Nc2ccc3ncc(-c4cn(C)nc4-c4ccnc(N)c4)cc3n2)c1 [Example 0752, 7-(3-(2-aminopyridin-4-yl)-1-methyl-1H-pyrazol-4-yl)-N-(5-isopropylpyridazin-3-yl)-1,5-naphthyridine-2-amine] |
| 1 to 10 | – | < 1 | COCc1cnnc(Nc2ccc3ncc(-c4cnn(C)c4)cc3n2)c1 [Example 0922] |
| 1 to 10 | < 1 | – | CC(C)c1cnnc(Nc2ccc3ncc(-c4ccnn4C)cc3n2)c1 [Example 0758] |
| < 1 | < 1 | – | CC(C)N1CC(OCCn2cc(-c3cnc4ccc(Nc5cc(CC6CCCCC6)cnn5)nc4c3)cn2)C1 [Example 0819] |
| < 1 | < 1 | – | CC(C)c1cnnc(Nc2ccc3ncc(-c4cn(C)nc4Cc4cccnc4)cc3n2)c1 [Example 0824, N-(5-isopropylpyridazin-3-yl)-7-(1-methyl-3-(pyridin-3-ylmethyl)-1H-pyrazol-4-yl)-1,5-naphthyridine-2-amine] |
| < 1 | – | < 1 | CC(C)c1cnnc(Nc2ccc3ncc(-c4cn(C)nc4N4CCCC4)cc3n2)c1 [Example 0937] |
| 1 to 10 | < 1 | – | COc1ccc(-c2cnc3ccc(Nc4cc(C(C)C)cnn4)nc3c2)cn1 [Example 0590] |
| < 1 | < 1 | – | CCC(CC)c1cnnc(Nc2ccc3ncc(-c4cn(C)nc4C)cc3n2)c1 [Example 0769] |
| < 1 | < 1 | – | CC(C)c1cnnc(Nc2ccc3ncc(-c4ccc(=O)n(C)c4)cc3n2)c1 [Example 0594, 5-(6-((5-isopropylpyridazin-3-yl)amino)-1,5-naphthyridin-3-yl)-1-methylpyridin-2(1H)-one] |
| 1 to 10 | 1 to 10 | – | CC(C)c1cnnc(Nc2ccc3ncc(C(=O)NCCO)cc3n2)c1 [Example 0655, N-(2-hydroxyethyl)-6-((5-isopropylpyridazin-3-yl)amino)-1,5-naphthyridine-3-carboxamide] |
| < 1 | < 1 | – | Cc1c(-c2cnn(C)c2)cnc2ccc(Nc3cc(C(C)C)cnn3)nc12 [Example 0850, N-(5-isopropylpyridazin-3-yl)-8-methyl-7-(1-methyl-1H-pyrazol-4-yl)-1,5-naphthyridine-2-amine] |
| < 1 | – | < 1 | CC(C)c1cnnc(Nc2ccc3ncc(-c4cn(C)nc4COc4cccnn4)cc3n2)c1 [Example 0913, N-(5-isopropylpyridazin-3-yl)-7-(1-methyl-3-((pyridazin-3-yloxy)methyl)-1H-pyrazol-4-yl)-1,5-naphthyridine-2-amine] |
